Data from the NIST ThermoML archive (doi:10.1016/j.jct.2005.05.008).

Assay: an = ratio of the nth substance listed, in mol/kg
Conditions: 101 kPa, Liquid, Vibrating tube method

C[N+](C)(C)C.[O-][Cl+3]([O-])([O-])[O-] [tetramethylammonium perchlorate] + CN(C)C=O
mass density [kg/m3]
Conditions	a1 = 0.01523	a1 = 0.01902	a1 = 0.02912	a1 = 0.03309	a1 = 0.03853	a1 = 0.04774	a1 = 0.05313	a1 = 0.0674	a1 = 0.08195	a1 = 0.09648
283.15 K	958.937	959.151	959.718	959.941	960.244	960.757	961.055	961.841	962.642	963.443
293.15 K	949.438	949.656	950.233	950.46	950.768	951.288	951.59	952.388	953.2	954.007
298.15 K	944.682	944.901	945.481	945.71	946.019	946.545	946.848	947.652	948.469	949.284
303.15 K	939.914	940.135	940.72	940.951	941.262	941.792	942.097	942.907	943.731	944.551
313.15 K	930.347	930.572	931.168	931.402	931.719	932.257	932.568	933.392	934.229	935.06
323.15 K	920.732	920.962	921.569	921.807	922.13	922.676	922.995	923.831	924.679	925.524
333.15 K	911.066	911.299	911.916	912.157	912.486	913.042	913.365	914.216	915.082	915.939
